ChEMBL document CHEMBL4725338, “Discovery of novel histone lysine methyltransferase G9a/GLP (EHMT2/1) inhibitors: Design, synthesis, and structure-activity relationships of 2,4-diamino-6-methylpyrimidines” (Bioorg Med Chem Lett, 2020)
Converted amounts (≈) assume the structure as drawn. The source made the active and inactive calls. The calls are words filed in the database; no cut-off is given here.

Key:
[1] = biological target: T1, Histone-lysine N-methyltransferase EHMT2 (Homo sapiens, UniProt Q96KQ7); assay: Inhibition G9a (unknown origin)
T1 sequence (Q96KQ7 whole entry): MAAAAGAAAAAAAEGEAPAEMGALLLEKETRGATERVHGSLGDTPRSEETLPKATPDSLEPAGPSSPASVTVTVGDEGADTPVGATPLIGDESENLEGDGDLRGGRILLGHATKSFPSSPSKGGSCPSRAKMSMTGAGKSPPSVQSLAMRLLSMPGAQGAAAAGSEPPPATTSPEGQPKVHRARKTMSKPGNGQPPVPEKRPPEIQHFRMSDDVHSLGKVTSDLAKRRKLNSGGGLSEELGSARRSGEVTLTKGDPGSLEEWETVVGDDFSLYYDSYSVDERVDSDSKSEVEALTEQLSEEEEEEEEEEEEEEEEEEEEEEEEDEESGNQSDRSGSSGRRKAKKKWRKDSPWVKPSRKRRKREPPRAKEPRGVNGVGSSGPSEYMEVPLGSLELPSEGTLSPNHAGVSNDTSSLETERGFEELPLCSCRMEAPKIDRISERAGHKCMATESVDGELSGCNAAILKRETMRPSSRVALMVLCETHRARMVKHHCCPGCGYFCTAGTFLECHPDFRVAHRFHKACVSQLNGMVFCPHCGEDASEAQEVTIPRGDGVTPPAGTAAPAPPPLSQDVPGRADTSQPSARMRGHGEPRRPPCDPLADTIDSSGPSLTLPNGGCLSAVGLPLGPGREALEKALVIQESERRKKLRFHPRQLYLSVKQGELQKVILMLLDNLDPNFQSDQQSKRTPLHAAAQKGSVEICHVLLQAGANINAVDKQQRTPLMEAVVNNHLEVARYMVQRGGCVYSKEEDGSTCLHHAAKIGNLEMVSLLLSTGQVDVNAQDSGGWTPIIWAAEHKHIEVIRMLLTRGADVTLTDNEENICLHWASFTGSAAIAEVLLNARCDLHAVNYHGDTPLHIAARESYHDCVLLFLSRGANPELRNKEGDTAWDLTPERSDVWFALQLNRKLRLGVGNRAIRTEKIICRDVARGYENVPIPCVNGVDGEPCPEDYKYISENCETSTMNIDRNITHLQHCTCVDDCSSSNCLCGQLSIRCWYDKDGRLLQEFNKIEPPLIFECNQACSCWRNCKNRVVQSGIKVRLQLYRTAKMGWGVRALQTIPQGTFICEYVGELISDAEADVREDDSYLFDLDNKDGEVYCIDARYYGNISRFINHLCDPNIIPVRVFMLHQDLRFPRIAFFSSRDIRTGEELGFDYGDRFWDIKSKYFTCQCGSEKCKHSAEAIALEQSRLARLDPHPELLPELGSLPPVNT

[2] = biological target: T2, Histone-lysine N-methyltransferase EHMT1 (Homo sapiens, UniProt Q9H9B1); assay: Inhibition of GLP (unknown origin)
T2 sequence (Q9H9B1 whole entry): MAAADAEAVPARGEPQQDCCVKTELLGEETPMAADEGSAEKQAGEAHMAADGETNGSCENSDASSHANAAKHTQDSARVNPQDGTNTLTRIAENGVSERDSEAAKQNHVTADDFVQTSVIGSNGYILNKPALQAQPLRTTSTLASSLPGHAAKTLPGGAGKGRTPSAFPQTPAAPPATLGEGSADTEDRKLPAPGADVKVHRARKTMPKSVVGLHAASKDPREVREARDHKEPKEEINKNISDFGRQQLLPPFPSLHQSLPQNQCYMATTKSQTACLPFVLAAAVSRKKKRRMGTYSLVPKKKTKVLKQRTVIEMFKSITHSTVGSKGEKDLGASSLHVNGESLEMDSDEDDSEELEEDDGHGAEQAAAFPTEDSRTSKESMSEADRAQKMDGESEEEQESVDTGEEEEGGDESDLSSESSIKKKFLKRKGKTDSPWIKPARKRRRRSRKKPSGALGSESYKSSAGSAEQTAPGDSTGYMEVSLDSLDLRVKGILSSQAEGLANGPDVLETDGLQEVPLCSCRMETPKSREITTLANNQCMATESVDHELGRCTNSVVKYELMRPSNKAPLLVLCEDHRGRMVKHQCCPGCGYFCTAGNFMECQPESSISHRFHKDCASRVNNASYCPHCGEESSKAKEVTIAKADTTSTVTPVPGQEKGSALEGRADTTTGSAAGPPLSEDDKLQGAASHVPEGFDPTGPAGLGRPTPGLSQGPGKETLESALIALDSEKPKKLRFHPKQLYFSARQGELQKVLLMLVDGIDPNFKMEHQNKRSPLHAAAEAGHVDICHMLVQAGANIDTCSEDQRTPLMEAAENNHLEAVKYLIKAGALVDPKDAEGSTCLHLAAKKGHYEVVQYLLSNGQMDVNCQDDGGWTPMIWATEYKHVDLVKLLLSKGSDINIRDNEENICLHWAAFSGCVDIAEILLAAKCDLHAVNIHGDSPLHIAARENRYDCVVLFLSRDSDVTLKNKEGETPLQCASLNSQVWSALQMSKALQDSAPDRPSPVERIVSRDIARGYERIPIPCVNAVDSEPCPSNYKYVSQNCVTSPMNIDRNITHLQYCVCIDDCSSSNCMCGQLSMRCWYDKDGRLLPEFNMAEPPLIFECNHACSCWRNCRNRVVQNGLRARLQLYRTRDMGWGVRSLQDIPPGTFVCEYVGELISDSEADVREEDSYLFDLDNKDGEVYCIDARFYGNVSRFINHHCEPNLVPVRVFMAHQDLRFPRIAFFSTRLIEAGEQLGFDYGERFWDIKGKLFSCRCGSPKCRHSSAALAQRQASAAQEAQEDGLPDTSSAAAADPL

[3] = Lipophilicity, log D of compound; type: physicochemical; conditions: octanol/water
[4] = Apparent permeability in MDCK cells; type: ADME, cell-based, Canis lupus familiaris; conditions: dog
[5] = Aqueous solubility of the compound in pH 1.2 JP1 fluid; type: physicochemical
[6] = Aqueous solubility of the compound in pH 6.8 JP2 fluid; type: physicochemical
[7] = Metabolic stability in mouse liver microsomes assessed as compound remaining at 0.5 mg/mL incubated for 0.5 hrs; type: ADME, Microsome; conditions: read-out: Stabilty
[8] = Metabolic stability in monkey liver microsomes assessed as compound remaining at 0.5 mg/mL incubated for 0.5 hrs; type: ADME, Macaca mulatta, Microsome; conditions: rhesus monkey, read-out: Stabilty
[9] = Metabolic stability in human liver microsomes assessed as compound remaining at 0.5 mg/mL incubated for 0.5 hrs; type: ADME, Microsome; conditions: read-out: Stabilty
[10] = Cmax in mouse at 10 mg/kg, po; type: ADME, organism-based; design: route oral, dose 10 mg/kg; conditions: in vivo
[11] = biological target: hERG (KCNH2) (Homo sapiens, UniProt Q12809); assay: Inhibition of human ERG at 10 uM relative to control
Sequence of hERG (KCNH2) (Q12809 whole entry): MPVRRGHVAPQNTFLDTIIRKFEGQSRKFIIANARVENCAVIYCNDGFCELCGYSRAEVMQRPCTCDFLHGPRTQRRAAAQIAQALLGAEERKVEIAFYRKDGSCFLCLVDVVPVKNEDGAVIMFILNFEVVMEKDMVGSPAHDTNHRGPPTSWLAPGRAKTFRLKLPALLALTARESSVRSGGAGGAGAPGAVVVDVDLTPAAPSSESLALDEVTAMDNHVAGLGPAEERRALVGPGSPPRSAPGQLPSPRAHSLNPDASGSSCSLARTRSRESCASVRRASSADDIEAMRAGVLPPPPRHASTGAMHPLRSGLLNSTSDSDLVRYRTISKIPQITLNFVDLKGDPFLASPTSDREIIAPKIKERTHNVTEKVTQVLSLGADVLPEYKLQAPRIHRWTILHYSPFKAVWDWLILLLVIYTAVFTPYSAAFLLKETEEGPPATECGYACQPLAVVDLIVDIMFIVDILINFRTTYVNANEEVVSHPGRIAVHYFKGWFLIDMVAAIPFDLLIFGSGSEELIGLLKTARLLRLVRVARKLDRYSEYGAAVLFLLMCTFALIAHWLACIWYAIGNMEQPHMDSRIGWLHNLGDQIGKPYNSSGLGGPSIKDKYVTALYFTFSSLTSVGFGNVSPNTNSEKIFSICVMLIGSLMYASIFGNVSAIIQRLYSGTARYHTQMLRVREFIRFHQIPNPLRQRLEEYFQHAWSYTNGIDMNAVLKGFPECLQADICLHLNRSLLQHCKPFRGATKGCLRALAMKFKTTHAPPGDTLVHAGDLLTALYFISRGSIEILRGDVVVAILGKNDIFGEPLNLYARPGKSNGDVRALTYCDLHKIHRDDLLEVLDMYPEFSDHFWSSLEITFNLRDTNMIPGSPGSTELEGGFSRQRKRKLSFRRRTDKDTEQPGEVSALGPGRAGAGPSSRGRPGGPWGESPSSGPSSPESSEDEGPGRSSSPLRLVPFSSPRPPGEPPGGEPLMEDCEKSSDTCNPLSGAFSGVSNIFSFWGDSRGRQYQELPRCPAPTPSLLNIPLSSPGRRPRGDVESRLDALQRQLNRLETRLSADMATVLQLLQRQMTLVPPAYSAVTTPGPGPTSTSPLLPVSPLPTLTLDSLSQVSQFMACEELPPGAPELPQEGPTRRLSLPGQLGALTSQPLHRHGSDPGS

[12] = biological target: CYP3A4 (Homo sapiens, UniProt P08684); assay: Mechanism based inhibition of CYP3A4 in human liver microsome assessed as remaining percentage at 100 uM in presence of substrate ACN preincubated 30 mins followed by substrate addition relative to control; type: ADME; conditions: liver microsomes, probe ACN (so in the source), read-out: Activity
Sequence of CYP3A4 (P08684 whole entry): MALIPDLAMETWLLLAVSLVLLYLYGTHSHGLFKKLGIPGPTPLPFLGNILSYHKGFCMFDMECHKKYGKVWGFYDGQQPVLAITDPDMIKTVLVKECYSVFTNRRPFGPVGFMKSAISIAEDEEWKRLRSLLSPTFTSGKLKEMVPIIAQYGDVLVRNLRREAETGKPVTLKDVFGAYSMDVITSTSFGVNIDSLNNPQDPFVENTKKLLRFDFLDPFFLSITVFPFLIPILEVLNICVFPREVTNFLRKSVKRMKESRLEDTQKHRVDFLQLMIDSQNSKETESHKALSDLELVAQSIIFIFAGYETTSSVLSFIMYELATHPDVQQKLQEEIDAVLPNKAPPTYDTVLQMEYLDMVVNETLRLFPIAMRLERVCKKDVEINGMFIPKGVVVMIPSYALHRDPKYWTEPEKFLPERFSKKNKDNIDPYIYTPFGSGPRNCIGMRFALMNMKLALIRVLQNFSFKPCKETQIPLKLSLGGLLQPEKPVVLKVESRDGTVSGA

[13] = AUC (0 to infinity) in mouse at 10 mg/kg, po; type: ADME, organism-based; design: time infinity, route oral, dose 10 mg/kg; conditions: in vivo
[14] = Tmax in mouse at 10 mg/kg, po; type: ADME, organism-based; conditions: in vivo
[15] = Oral bioavailability in mouse at 10 mg/kg; type: ADME, organism-based; conditions: in vivo
[16] = Initial plasma concentration in mouse at 1 mg/kg, iv; type: ADME, organism-based
[17] = AUC (0 to infinity) in mouse at 1 mg/kg, iv; type: ADME, organism-based; design: time infinity, route intravenous, dose 1 mg/kg; conditions: in vivo
[18] = Half-life in mouse at 1 mg/kg, iv; type: ADME, organism-based; conditions: in vivo
[19] = Volume of distribution at steady state in mouse at 1 mg/kg, iv; type: ADME, organism-based; conditions: in vivo, read-out: Vdss
[20] = Intrinsic clearance in mouse at 1 mg/kg, iv; type: ADME, organism-based; conditions: in vivo
[21] = tested on: CD34-positive (myeloid/lymphoid) cell; assay: Inhibition of G9a methyltransferase activity in human CD34+ cells assessed as induction of fetal type gamma globin at 1 uM in presence of erythropoietin measured after 21 days by staining based method; type: functional; conditions: time 21.0 day
[22] = tested on: CD34-positive (myeloid/lymphoid) cell; assay: Induction of fetal globin in human CD34+ cells assessed as switching of mRAN expression from adult beta-globin to fetal type gamma globin at 0.3 to 1 uM by qRT-PCR analysis; type: functional, cell-based

Row | IC50 [1] | IC50 [2] | Compound | also measured
1 | 588 nM |  | CNc1cc(C)nc(Nc2ccc(OC)c(C3CCN(C)CC3)c2)n1 | 
2 | 3.25 nM | 14.7 nM | CNc1cc(C)nc(Nc2ccc(OC(F)F)c(C3=CCNCCC3)c2)n1 | 
3 | 213 nM | 1590 nM | CNc1cc(C)nc(Nc2ccc(OC)c(C3=CCN(CCO)CCC3)c2)n1 | 
4 |  | 74.1 nM | CNc1cc(C)nc(Nc2ccc(OC)c(C3=CCN(C)CCC3)c2)n1 | logD [3]: 1.3; Papp [4]: 8.4 ×10⁻⁶ cm/s; solubility [5]: 710 µg/mL (≈ 2010 µM); solubility [6]: 360 µg/mL (≈ 1020 µM); remaining at 0.5 h [7]: 23%; remaining at 0.5 h [8]: 2%; remaining at 0.5 h [9]: 76%; Cmax [10]: 210 nM; inhibition at 10 µM [11]: 17%; activity at 30 min, 100 µM [12]: 87.3%; AUC(0-inf) [13]: 3.14 µM·h; Tmax [14]: 0.63 h; bioavailability [15]: 26%; C0 [16]: 220 nM; AUC(0-inf) [17]: 1.2 µM·h; half-life [18]: 5.6 h; Vd [19]: 14.9 L/kg; CL [20]: 38.7 mL/min/kg
5 | 853 nM | 3800 nM | CNc1cc(C)nc(Nc2ccc(OC(F)(F)F)c(C3=CCNCCC3)c2)n1 | 
6 | > 5000 nM |  | CNc1cc(C)nc(Nc2ccc(OC)c(N3CCN(C)CC3)c2)n1 | 
7 | 145 nM | 1070 nM | CNc1cc(C)nc(Nc2ccc(OC)c(C3=CCN(C4CCC4)CCC3)c2)n1 | 
8 | 6.32 nM | 27.1 nM | CNc1cc(C)nc(Nc2ccc(Cl)c(C3=CCNCCC3)c2)n1 | 
9 | 83.3 nM | 479 nM | CNc1cc(C)nc(Nc2ccc(OC)c(C3=CCCNCC3)c2)n1 | 
10 |  |  | COc1cc2c(NC3CCN(C(C)C)CC3)nc(C3CCCCC3)nc2cc1OCCCN1CCCC1 | Activity [21]: Active
11 | 14.2 nM | 109 nM | CNc1cc(C)nc(Nc2ccc(C)c(C3=CCNCCC3)c2)n1 | 
12 | 1490 nM | 2770 nM | CNc1cc(C)nc(Nc2ccc(OC)c(C3=CCN(C)C3)c2)n1 | 
13 | 15.2 nM | 43.2 nM | CNc1cc(C)nc(Nc2ccc(C#N)c(C3=CCNCCC3)c2)n1 | 
14 |  |  | COc1cc2c(cc1OCCCN1CCCC1)N=C(N)C21CCC1 | Activity [22]: Active
15 | 451 nM | 864 nM | CNc1cc(C)nc(Nc2ccc(OC)c(C3=CCCN(C)C3)c2)n1 | 
16 | 10.5 nM | 44.1 nM | CCN1CC=C(c2cc(Nc3nc(C)cc(NC)n3)ccc2OC)CCC1 | 
17 | 28.2 nM | 342 nM | CNc1cc(C)nc(Nc2ccc(OC)c(C3CCCNCC3)c2)n1 (racemic) | 

Row | Compound | IC50 [1] | IC50 [2] | also measured
18 | CNc1cc(C)nc(Nc2ccc(OC)c(C3=CCNCC3)c2)n1 | 225 nM | 1160 nM | 
19 | CNc1cc(C)nc(Nc2ccc(OC)c(C3=CCN(C)CC3)c2)n1 | 92.9 nM | 277 nM | 
